Values after ≈ are worked out from the molar mass of the structure shown. Where two headings read alike, the source gives them in different places.
How the values were obtained:
CHI Log D procedure = format: physicochemical; settings: for CHI Log D: pH 7.4; for chromatographic logD: pH 7.4, CHI Log D
Solubility in PBS = format: physicochemical
Outline: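 Steps: ultracentrifuge the peptide PBS solution, inject the supernatant on HPLC, inject a 50 μM peptide DMSO solution as reference, then calculate solubility as area ratio (PBS/DMSO) × 50 uM.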

[1] = target: T1, full-length beta-Catenin (Uniprot ID P35222) (Homo sapiens, UniProt P35222); assay: Fluorescence polarization IC50 (beta-catenin / 5FAM-TCF4 10-53 competition); format: binding
T1 construct: 10 nM full-length beta-Catenin (Uniprot ID P35222)
T1 sequence (P35222 1-781): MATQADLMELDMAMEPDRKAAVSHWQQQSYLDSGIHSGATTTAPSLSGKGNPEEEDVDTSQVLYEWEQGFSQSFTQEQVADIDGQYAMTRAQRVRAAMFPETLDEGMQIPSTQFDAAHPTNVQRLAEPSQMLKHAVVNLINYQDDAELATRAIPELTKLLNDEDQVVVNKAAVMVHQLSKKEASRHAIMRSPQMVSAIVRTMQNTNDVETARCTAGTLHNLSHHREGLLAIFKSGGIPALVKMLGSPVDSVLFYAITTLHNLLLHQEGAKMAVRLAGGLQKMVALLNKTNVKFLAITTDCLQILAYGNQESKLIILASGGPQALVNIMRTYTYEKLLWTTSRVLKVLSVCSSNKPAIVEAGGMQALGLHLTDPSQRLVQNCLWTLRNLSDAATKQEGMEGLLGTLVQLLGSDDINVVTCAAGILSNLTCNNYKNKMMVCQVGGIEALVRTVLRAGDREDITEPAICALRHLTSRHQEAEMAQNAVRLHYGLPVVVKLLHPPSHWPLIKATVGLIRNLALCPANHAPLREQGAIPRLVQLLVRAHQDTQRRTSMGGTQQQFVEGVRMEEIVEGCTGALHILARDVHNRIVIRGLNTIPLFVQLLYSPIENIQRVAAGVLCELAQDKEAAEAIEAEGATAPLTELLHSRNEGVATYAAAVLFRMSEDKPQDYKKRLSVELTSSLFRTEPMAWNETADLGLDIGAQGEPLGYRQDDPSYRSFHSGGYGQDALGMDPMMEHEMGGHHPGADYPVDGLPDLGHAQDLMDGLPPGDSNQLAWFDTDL

[2] = fluorescence polarization, beta-catenin, read-out: FP EC50
[3] = fluorescence polarization, read-out: beta-Catenin FP IC50
[4] = Table E2-1, read-out: beta-Catenin FP IC50

Row | CHI Log D (CHI Log D procedure) | Solubility (Solubility in PBS) [µM] | chromatographic logD (CHI Log D procedure) | Solubility (Solubility in PBS; Solubility (uM)) [µM] | IC50 [1, 3] [nM] | Structure (SMILES) | also measured
1 | 1.875 | 46 (≈ 90.9 µg/mL) |  |  |  | CC(=O)N1CCC[C@]12CC=CCCCC1(CCCC=CCCCOC(=O)N3CC[C@@](C(=O)N[C@@H](Cc4ccsc4)C(=O)N[C@@H](Cc4csc5ccccc45)C(=O)N[C@@H](CO)C(N)=O)(C3)NC(=O)[C@H]([C@@H](C)O)NC(=O)[C@H](Cc3ccccc3)NC(=O)[C@H](C)NC(=O)[C@H](C)NC(=O)[C@H](CN(CC(=O)O)CC(F)(F)F)NC(=O)[C@H](CC(=O)O)NC1=O)NC(=O)[C@H](CC(C)(C)C)NC(=O)[C@H](CC(=O)O)NC2=O (stereo partly drawn) [I-956, Ac-PL3-Asp-Npg-B5-Asp-TfeGA-Ala-Ala-Phe-Thr-PyrS2-3Thi-BztA-Ser-NH2] | IC50 [1, 2]: 1090 nM; IC50 ([1]; read-out: beta-Catenin FP IC50): 1090 nM
2 |  |  | 1.8 | 42 (≈ 81.5 µg/mL) | 43 | CC[C@H](C)[C@@H]1NC(=O)[C@H](CC(=O)O)NC(=O)[C@]2(CC=CCCCC3(CCCC=CCCCCCC[C@@](C)(C(=O)N[C@@H](Cc4ccccc4)C(=O)N[C@@H](Cc4csc5ccccc45)C(=O)N[C@@H](CCC(N)=O)C(N)=O)NC(=O)[C@H](CCC(N)=O)NC(=O)[C@H](Cc4ccccc4)NC(=O)[C@H](CCC(N)=O)NC(=O)[C@H](C)NC(=O)[C@H](CCC(=O)O)NC(=O)[C@H](CC(=O)O)NC3=O)NC1=O)CCCN2C(C)=O (stereo partly drawn) [I-663, Ac-PL3-Asp-Ile-B5-Asp-Glu-Ala-Gln-Phe-Gln-S8-Phe-BztA-Gln-NH2] | 
3 | 1.837 | 45 (≈ 81.6 µg/mL) |  |  |  | CC(=O)N1CCC[C@]12CC=CCCCC1(CCCC=CCCCCCC[C@@](C)(C(=O)N[C@@H](Cc3ccccn3)C(=O)N[C@@H](Cc3csc4ccccc34)C(=O)N[C@@H](CCC(N)=O)C(N)=O)NC(=O)[C@H](C(C)C)NC(=O)[C@H](Cc3ccccc3)NC(=O)[C@H](C)NC(=O)[C@H](C)NC(=O)[C@H](CCC(=O)O)NC(=O)[C@H](CC(=O)O)NC1=O)NC(=O)[C@H](C)NC(=O)[C@H](CC(=O)O)NC2=O (stereo partly drawn) [I-384, Ac-PL3-Asp-Ala-B5-Asp-Glu-Ala-Ala-Phe-Val-S8-2pyrA-BztA-Gln-NH2] | IC50 [1, 4]: 177 nM; IC50 [1, 2]: 177 nM
4 |  |  | 2 | 31 (≈ 57.4 µg/mL) | 90 | CC(=O)N1CCC[C@]12CC=CCCCC1(CCCC=CCCCCCC[C@@](C)(C(=O)N[C@@H](Cc3ccccc3)C(=O)N[C@@H](Cc3csc4ccccc34)C(=O)N[C@@H](CCC(N)=O)C(N)=O)NC(=O)[C@H](CCC(N)=O)NC(=O)[C@H](Cc3ccccc3)NC(=O)[C@H](C)NC(=O)[C@H](C)NC(=O)[C@H](Cc3nn[nH]n3)NC(=O)[C@H](CC(=O)O)NC1=O)NC(=O)[C@H](C)NC(=O)[C@H](CC(=O)O)NC2=O (stereo partly drawn) [I-413, Ac-PL3-Asp-Ala-B5-Asp-tetz-Ala-Ala-Phe-Gln-S8-Phe-BztA-Gln-NH2] | 
5 | 2.087 | 36 (≈ 66.1 µg/mL) |  |  | 99 | CC(=O)N1CCC[C@]12CC=CCCCC1(CCCC=CCCCCCC[C@@](C)(C(=O)N[C@@H](Cc3ccccc3)C(=O)N[C@@H](Cc3csc4ccccc34)C(=O)N[C@@H](Cc3c[nH]cn3)C(N)=O)NC(=O)[C@H](CC(N)=O)NC(=O)[C@H](Cc3ccccc3)NC(=O)[C@H](C)NC(=O)[C@H](C)NC(=O)[C@H](CCC(=O)O)NC(=O)[C@H](CC(=O)O)NC1=O)NC(=O)[C@H](C)NC(=O)[C@H](CC(=O)O)NC2=O (stereo partly drawn) [I-421, Ac-PL3-Asp-Ala-B5-Asp-Glu-Ala-Ala-Phe-Asn-S8-Phe-BztA-His-NH2] | IC50 ([1]; read-out: FP EC50): 99 nM
6 |  |  | 2.42 | 36 (≈ 67.6 µg/mL) | 62 | CC[C@H](C)[C@@H]1NC(=O)[C@H](CC(=O)O)NC(=O)[C@]2(CC=CCCCC3(CCCC=CCCCCCC[C@@](C)(C(=O)N[C@@H](Cc4ccccc4)C(=O)N[C@@H](Cc4csc5ccccc45)C(=O)N[C@@H](Cc4c[nH]cn4)C(N)=O)NC(=O)[C@H](CC(N)=O)NC(=O)[C@H](Cc4ccccc4)NC(=O)[C@H](C)NC(=O)[C@H](C)NC(=O)[C@H](CCC(=O)O)NC(=O)[C@H](CC(=O)O)NC3=O)NC1=O)CCCN2C(C)=O (stereo partly drawn) [I-472, Ac-PL3-Asp-Ile-B5-Asp-Glu-Ala-Ala-Phe-Asn-S8-Phe-BztA-His-NH2] | 
7 | 1.943 | 44 (≈ 81.6 µg/mL) |  |  |  | CC(=O)N1CCC[C@]12CC=CCCCC1(CCCC=CCCCCCC[C@@](C)(C(=O)N[C@@H](Cc3ccccc3)C(=O)N[C@@H](Cc3csc4ccccc34)C(=O)N[C@@H](CCC(N)=O)C(N)=O)NC(=O)[C@H](C(C)C)NC(=O)[C@H](Cc3ccccc3)NC(=O)[C@H](C)NC(=O)[C@H](C)NC(=O)[C@H](CC(=O)O)NC(=O)[C@H](CC(=O)O)NC1=O)NC(=O)[C@H](CCC(N)=O)NC(=O)[C@H](CC(=O)O)NC2=O (stereo partly drawn) [I-346, Ac-PL3-Asp-Gln-B5-Asp-Asp-Ala-Ala-Phe-Val-S8-Phe-BztA-Gln-NH2] | IC50 [1, 4]: 180 nM; IC50 [1, 2]: 180 nM
8 |  |  | 1.39 |  | 5000 | CC(=O)N1CCC[C@]12CC=CCCCC1(CCCC=CCCCCCC[C@@](C)(C(=O)NC(Cc3cncn3C)C(=O)N[C@@H](Cc3csc4ccccc34)C(=O)N[C@@H](CCC(N)=O)C(N)=O)NC(=O)[C@H](CC(N)=O)NC(=O)[C@H](Cc3ccccc3)NC(=O)[C@H](C)NC(=O)[C@H](C)NC(=O)[C@H](CCC(=O)O)NC(=O)[C@H](CC(=O)O)NC1=O)NC(=O)[C@H](C)NC(=O)[C@H](CC(=O)O)NC2=O (stereo partly drawn) [I-438, Ac-PL3-Asp-Ala-B5-Asp-Glu-Ala-Ala-Phe-Asn-S8-3meH-BztA-Gln-NH2] | solubility at 15 min (Solubility in PBS; Solubility (uM)): 46 µM (≈ 84.2 µg/mL)
9 |  |  | 2.19 | 48 (≈ 86.7 µg/mL) |  | CC(=O)N1CCC[C@]12CC=CCCCC1(CCCC=CCCCCCC[C@@](C)(C(=O)N[C@@H](Cc3ccccc3)C(=O)N[C@@H](Cc3ccc4ccccc4c3)C(=O)N[C@@H](CCC(N)=O)C(N)=O)NC(=O)[C@H](C(C)C)NC(=O)[C@H](Cc3ccccc3)NC(=O)[C@H](C)NC(=O)[C@H](C)NC(=O)[C@H](CCC(=O)O)NC(=O)[C@H](CC(=O)O)NC1=O)NC(=O)[C@H](C)NC(=O)[C@H](CC(=O)O)NC2=O (stereo partly drawn) [I-140, Ac-PL3-Asp-Ala-B5-Asp-Glu-Ala-Ala-Phe-Val-S8-Phe-2NapA-Gln-NH2] | IC50 [1, 4]: 2270 nM
10 | 2.133 |  |  |  | 42 | CC(=O)N1CCC[C@]12CC=CCCCC1(CCCC=CCCCCCC[C@@](C)(C(=O)N[C@@H](Cc3ccccc3)C(=O)N[C@@H](Cc3csc4ccccc34)C(=O)NC(Cc3cncn3C)C(N)=O)NC(=O)[C@H](CC(N)=O)NC(=O)[C@H](Cc3ccccc3)NC(=O)[C@H](C)NC(=O)[C@H](C)NC(=O)[C@H](CCC(=O)O)NC(=O)[C@H](CC(=O)O)NC1=O)NC(=O)[C@H](C)NC(=O)[C@H](CC(=O)O)NC2=O (single isomer, unassigned) [I-481, Ac-PL3-Asp-Ala-B5-Asp-Glu-Ala-Ala-Phe-Asn-S8-Phe-BztA-3MeH-NH2] | Solubility (Solubility in PBS; 15 min): 30 µM (≈ 55.5 µg/mL)
11 |  | 50 (≈ 94 µg/mL) | 1.57 |  | 143 | CC(=O)N1CCC[C@]12CC=CCCCC1(CCCC=CCCCCCC[C@@](C)(C(=O)N[C@@H](Cc3ccccc3C(N)=O)C(=O)N[C@@H](Cc3csc4ccccc34)C(=O)N[C@@H](Cc3c[nH]cn3)C(N)=O)NC(=O)[C@H](CC(N)=O)NC(=O)[C@H](Cc3ccccc3)NC(=O)[C@H](C)NC(=O)[C@H](C)NC(=O)[C@H](CCC(=O)O)NC(=O)[C@H](CC(=O)O)NC1=O)NC(=O)[C@H](C)NC(=O)[C@H](CC(=O)O)NC2=O (stereo partly drawn) [I-513, Ac-PL3-Asp-Ala-B5-Asp-Glu-Ala-Ala-Phe-Asn-S8-2CBMF-BztA-His-NH2] | 

Reference: patent publication US20240116985A1, “STAPLED PEPTIDES AND METHODS THEREOF” (priority 2020, published 2024)
